Laboratory results: patent US20260069558A1, “RXFP1 MODULATORS FOR TREATING RESISTANT HYPERTENSION OR HEART FAILURE WITH PULMONARY HYPERTENSION” (ASTRAZENECA AB, priority 2022, published 2026)
Values after ≈ are worked out from the molar mass of the structure shown.

What was measured:
human RXFP1 = molecular target: T1, human RXFP1 (Homo sapiens, UniProt Q9HBX9); assay: RXFP1 Hu cAMP (Test A), HTRF cAMP production; type: cell-based; conditions: for Test A Sinf: fitted efficacy at infinite concentration, normalized to response of 1 nM relaxin, arithmetic mean
T1 construct: expressed in transfected cells; host or cells: Jump-In T-REx CHO-K1 cells (ThermoFisher)
T1 sequence (Q9HBX9 1-757): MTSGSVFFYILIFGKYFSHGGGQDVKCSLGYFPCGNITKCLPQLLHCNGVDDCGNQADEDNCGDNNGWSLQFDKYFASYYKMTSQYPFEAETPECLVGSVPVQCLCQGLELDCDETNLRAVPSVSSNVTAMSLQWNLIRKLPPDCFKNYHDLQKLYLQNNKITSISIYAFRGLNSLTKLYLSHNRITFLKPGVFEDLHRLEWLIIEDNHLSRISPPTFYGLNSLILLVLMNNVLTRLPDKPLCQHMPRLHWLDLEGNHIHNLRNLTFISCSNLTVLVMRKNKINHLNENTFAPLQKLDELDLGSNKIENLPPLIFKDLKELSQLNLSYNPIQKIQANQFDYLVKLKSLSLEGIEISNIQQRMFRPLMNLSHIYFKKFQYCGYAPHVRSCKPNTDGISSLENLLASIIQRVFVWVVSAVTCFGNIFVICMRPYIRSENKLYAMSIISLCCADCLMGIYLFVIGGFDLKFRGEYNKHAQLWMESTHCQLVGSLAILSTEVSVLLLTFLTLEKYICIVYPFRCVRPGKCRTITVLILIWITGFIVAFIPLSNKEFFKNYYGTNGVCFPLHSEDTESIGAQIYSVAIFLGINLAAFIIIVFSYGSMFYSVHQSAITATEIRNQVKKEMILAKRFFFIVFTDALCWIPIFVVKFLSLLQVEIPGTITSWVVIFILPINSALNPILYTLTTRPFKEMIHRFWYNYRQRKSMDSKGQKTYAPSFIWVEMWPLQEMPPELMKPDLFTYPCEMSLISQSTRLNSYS
Excerpt: To screen for modulators of hRXFP1, an assay identifying compounds that stimulate cAMP production via the Gs-coupled hRXFP1 receptor was used. cAMP HiRange HTRF kit (available from CisBio Bioassays, France; catalogue number 62AM6PEJ) was employed in large according to manufacturer's recommendations for detection of cAMP. The HTRF method is a competitive immunoassay between native cAMP produced by cells and cAMP labeled with the dye d2. The tracer binding is visualized with a cryptate labeled antibody for cAMP and the signal is thus inversely proportional to the amount of produced cAMP.
Cells: Jump-In™ T-REx™ CHO-K1 Cells (ThermoFisher) stably transfected with human RXFP1 was employed. Cells were induced to express human RXFP1 by treatment with 10 ng/ml doxycycline for 24 h. Cells were then cryopreserved for long term storage.
HTRF detection reagents: cAMP-d2 and anti-cAMP cryptate reconstituted according to CisBio instructions were diluted 1:40 in lysis buffer provided with the HTRF-kit.
Using a cAMP standard curve, HTRF data was converted to amount cAMP produced in the samples which was subsequentially used for calculation of concentration responses.
Concentration response data were fitted with a four parameter logistic fit, the Hill equation.
Where the assay was run multiple times for the same compound, the geometric mean is reported.
Sinf is the fitted activity level, efficacy, at infinite concentration of test compound. To facilitate comparison of efficacy data, efficacy was normalized to % effect of the response stimulated by a saturating concentration of relaxin (1 nM). Where the assay was run multiple times for the same compound, the arithmetic mean is reported.

[1] = Human Plasma Protein Binding (Test B); type: in vitro ADME; conditions: fraction unbound (fu), arithmetic mean
Protocol: Human Plasma Protein Binding (Test B)
The assay was conducted according to the Human Plasma Protein Binding Assay described in pages 167-170 of Wemevik, J. et al., “A Fully Integrated Assay Panel for Early Drug Metabolism and Pharmacokinetics Profiling”, Assay and Drug Development Technologies, 2020, 18(4), 157-179. Data are reported in Table 1 as fraction unbound (fu) (% free). Where the assay was run multiple times for the same compound, the arithmetic mean is reported.

[2] = Human Liver Microsomal Stability (Test C); type: in vitro ADME; conditions: human liver microsomes; arithmetic mean
Protocol: Human Liver Microsomal Stability (Test C)
The assay was conducted according to the Human Liver Microsome Stability Assay described in pages 170-174 of Wemevik, J. et al., “A Fully Integrated Assay Panel for Early Drug Metabolism and Pharmacokinetics Profiling”, Assay and Drug Development Technologies, 2020, 18(4), 157-179. Data are reported in Table 1 as CLint (μl/min/mg protein).
Where the assay was run multiple times for the same compound, the arithmetic mean is reported.

[3] = Human Hepatocyte Stability (Test D); type: in vitro ADME; conditions: cryopreserved pooled human hepatocytes (LiverPool 10-Donor), geometric mean
Protocol: Human Hepatocyte Stability (Test D)
Prepare 10 mM stock solutions of compound and control compounds in appropriate solvent (DMSO). Place incubation medium (L-15 Medium) in a 37° C. water bath, and allow warming for at least 15 minutes prior to use. • 2. […] Remove a vial of cryopreserved (less than −150° C.) human hepatocytes (LiverPool™ 10-Donor Human hepatocytes obtained from Bioreclamation IVT (Product No. S01205)) from storage, ensuring that vials remain at cryogenic temperatures until thawing process ensues. As quickly as possible, thaw the cells by placing the vial in a 37° C. water bath and gently shaking the vials. Vials should remain in water bath until all ice crystals have dissolved and are no longer visible. After thawing is complete, spray vial with 70% ethanol, transfer the vial to a bio-safety cabinet. • 5. Open the vial and pour the contents into the 50 mL conical tube containing thawing medium. Place the 50 mL conical tube into a centrifuge and spin at 100 g for 10 minutes (room temperature). […] Using Cellometer® Vision, count cells and determine the viable cell density. […]
All calculations were carried out using Microsoft Excel. Peak areas were determined from extracted ion chromatograms. In vitro intrinsic clearance (in vitro Clint, in μL/min/10^6 cells) of parent compound was determined by regression analysis of the Ln percent parent disappearance vs. time curve.

[4] = Rat Hepatocyte Stability (Test E); type: in vitro ADME; conditions: rat hepatocytes; geometric mean
Protocol: Rat Hepatocyte Stability (Test E)
The assay was conducted according to the Rat Hepatocyte Stability Assay described in pages 170-174 of Wernevik, J. et al., “A Fully Integrated Assay Panel for Early Drug Metabolism and Pharmacokinetics Profiling”, Assay and Drug Development Technologies, 2020, 18(4), 157-179. Data are reported in Table 1 as mean Clint (μl/min/10^6 cells). Where the assay was run multiple times for the same compound, the geometric mean is reported.

Solubility (Test F) = type: physicochemical; conditions: arithmetic mean
Protocol: The assay was conducted according to the Solubility Assay described in pages 164-167 of Wemevik, J. et al., “A Fully Integrated Assay Panel for Early Drug Metabolism and Pharmacokinetics Profiling”, Assay and Drug Development Technologies, 2020, 18(4), 157-179. Where the assay was run multiple times for the same compound, the arithmetic mean is reported.

| EC50 (human RXFP1; cAMP production, Jump-In T-REx CHO-K1 cells stably transfected with human RXFP1, geometric mean) [nM] | Test A Sinf (human RXFP1) [%] | Test B Human Plasma Protein Binding (% free) [1] [% free] | microsomal CLint [2] [µL/min/mg] | hepatocyte CLint at 1 µM [3] [µL/min/1e6 cells] | hepatocyte CLint [4] [µL/min/1e6 cells] | solubility (Solubility (Test F)) [µM] | Structure (SMILES) |
| --- | --- | --- | --- | --- | --- | --- | --- |
| 230 | 101 |  |  |  |  |  | COc1cc(F)c(O[C@H]2CC[C@@](C)(C(=O)O)CC2)cc1C(=O)N[C@@H]1[C@H]2CC[C@H](C2)[C@@H]1C(=O)NCC1CCC1 [Example 2, (1S,4s)-4-(5-(((1S,2R,3S,4R)-3-((cyclobutylmethyl)carbamoyl)bicyclo[2.2.1]heptan-2-yl)carbamoyl)-2-fluoro-4-methoxyphenoxy)-1-methylcyclohexane-1-carboxylic acid] |
|  | 97 |  |  |  |  |  | COc1cc(C#N)c(O[C@H]2CC[C@@](C)(C(=O)O)CC2)cc1C(=O)N[C@@H]1[C@H]2CC[C@H](C2)[C@@H]1C(=O)NCC1CC1 [Example 3, (1S,4s)-4-(2-Cyano-5-(((1S,2R,3S,4R)-3-((cyclopropylmethyl)carbamoyl)bicyclo[2.2.1]heptan-2-yl)carbamoyl)-4-methoxyphenoxy)-1-methylcyclohexane-1-carboxylic acid] |
|  |  | 12 | < 3 | < 1.2 | 15 | 910 (≈ 491 µg/mL) | COc1cc(C#N)c(O[C@H]2CC[C@@](C)(C(=O)O)CC2)cc1C(=O)N[C@@H]1[C@H]2CC[C@H](C2)[C@@H]1C(=O)NCC(C)(C)C [Example 5, (1S,4s)-4-(2-cyano-4-methoxy-5-(((1S,2R,3S,4R)-3-(neopentylcarbamoyl)bicyclo[2.2.1]heptan-2-yl)carbamoyl)phenoxy)-1-methylcyclohexane-1-carboxylic acid] |
